Our source for the MIC values is ChEMBL document CHEMBL5143624, “WCK 1152, WCK 1153: Discovery and structure activity relationship for the treatment of resistant pneumococcal and staphylococcal respiratory infections” (Bioorg Med Chem Lett, 2022).

In brackets after ≈: the same amount, converted by molar mass. A value given as a limit tells only on which side of the number the result lay.

What all share (assay type): functional
The test system of assay [1] is Staphylococcus aureus. The assay can be described thus: Antibacterial activity against methicillin resistant Staphylococcus aureus assessed as inhibition of bacterial growth incubated for 18 hrs by CLSI based serial agar dilution method. Particulars: Staphylococcus aureus, read-out: MIC.
Assay [2] concerns Streptococcus pneumoniae. The assay can be described thus: Antibacterial activity against Streptococcus pneumoniae assessed as inhibition of bacterial growth incubated for 18 hrs by CLSI based serial agar dilution method. Particulars: Streptococcus pneumoniae, 18 h, read-out: MIC. In general terms: In agar dilution, organisms are placed on agar that contains the substance at set levels.

Assay [3] has as its system Streptococcus pneumoniae. In words: Antibacterial activity against fluoroquinolone efflux positive Streptococcus pneumoniae 706 assessed as inhibition of bacterial growth incubated for 18 hrs by CLSI based serial agar dilution method.
Assay [4] has as its system Staphylococcus aureus. In words: Antibacterial activity against methicillin resistant Staphylococcus aureus 032 assessed as inhibition of bacterial growth incubated for 18 hrs by CLSI based serial agar dilution method.

Take `CC1(C)CN(c2c(F)cc3c(=O)c(C(=O)O)cn(C4CC4)c3c2F)CCC1N` (centres undefined): the MIC (as a rule, the least concentration at which growth counts as inhibited) in the assay with Staphylococcus aureus [1] is 3.12 µg/mL (≈ 7.97 µM); in the assay on Streptococcus pneumoniae [2] it was 0.4 µg/mL (≈ 1.02 µM).

On to `CCC1CN(c2c(F)cc3c(=O)c(C(=O)O)cn(C4CC4)c3c2OC)CCC1N` (centres undefined), for which the MIC is 0.1 µg/mL (≈ 0.248 µM) with Staphylococcus aureus [1] and 0.8 µg/mL (≈ 1.98 µM) in the assay on Streptococcus pneumoniae [2].

With `COc1c(N2CC(C)C(N)C(C)(C)C2)c(F)cc2c(=O)c(C(=O)O)cn(C3CC3)c12` (centres undefined), the MIC in the assay with Staphylococcus aureus [1] is 0.1 µg/mL (≈ 0.24 µM); with Streptococcus pneumoniae [2] it was 0.2 µg/mL (≈ 0.479 µM).

Take `CCNC1CCN(c2c(F)cc3c(=O)c(C(=O)O)cn(C4CC4)c3c2OC)CC1C` (centres undefined): the MIC in the assay with Staphylococcus aureus [1] came to 0.4 µg/mL (≈ 0.958 µM); in the assay on Streptococcus pneumoniae [2] it was 1.56 µg/mL (≈ 3.74 µM).

Consider `COc1c(N2CCC(N)C(C)(C)C2)c(F)c(N)c2c(=O)c(C(=O)O)cn(C3CC3)c12` (centres undefined), for which the MIC in the assay on Staphylococcus aureus [1] stood at 3.12 µg/mL (≈ 7.46 µM); with Streptococcus pneumoniae [2], 0.2 µg/mL (≈ 0.478 µM).

`CC1(C)CN(c2ccc3c(=O)c(C(=O)O)cn(-c4ccc(F)cc4F)c3n2)CCC1N` (centres undefined): the minimal inhibitory concentration (MIC) in the assay with Staphylococcus aureus [1] is over 12.5 µg/mL; with Streptococcus pneumoniae [2], 1.56 µg/mL (≈ 3.64 µM).

On to `CNC1CCN(c2c(F)cc3c(=O)c(C(=O)O)cn(C4CC4)c3c2OC)CC1(C)C` (centres undefined), for which the MIC was found to be 0.2 µg/mL (≈ 0.479 µM) in the assay on Staphylococcus aureus [1], 1.56 µg/mL (≈ 3.74 µM) in the assay with Streptococcus pneumoniae [2] and 1.56 µg/mL (≈ 3.74 µM) with Streptococcus pneumoniae [3].

Regarding `Cc1c(F)c(N2CCC(N)C(C)(C)C2)cc2c1c(=O)c(C(=O)O)cn2C1CC1` (centres undefined), the MIC with Staphylococcus aureus [1] is over 12.5 µg/mL; in the assay with Streptococcus pneumoniae [2], 0.8 µg/mL (≈ 2.06 µM).

`COc1c(N2CC[C@@H](N)C(C)(C)C2)c(F)c(N)c2c(=O)c(C(=O)O)cn(C3CC3)c12`: the MIC is over 12.5 µg/mL with Staphylococcus aureus [1] and 6.25 µg/mL (≈ 14.9 µM) in the assay with Streptococcus pneumoniae [2].

On to `COc1c(N2CCC(NC3CC3)C(C)C2)c(F)cc2c(=O)c(C(=O)O)cn(C3CC3)c12` (centres undefined), for which the MIC in the assay on Staphylococcus aureus [1] came to 0.4 µg/mL (≈ 0.931 µM); with Streptococcus pneumoniae [2] it was 1.56 µg/mL (≈ 3.63 µM).

Take `Cc1c(F)c(N2CCC(N)C(C)(C)C2)nc2c1c(=O)c(C(=O)O)cn2-c1ccc(F)cc1F` (centres undefined): the figures for the MIC in the assay with Staphylococcus aureus [1] and with Streptococcus pneumoniae [2] were over 12.5 µg/mL and 1.56 µg/mL (≈ 3.39 µM), respectively.

As to `CNC1C(C)CN(c2c(F)cc3c(=O)c(C(=O)O)cn(C4CC4)c3c2OC)CC1C` (centres undefined), the MIC was found to be 0.1 µg/mL (≈ 0.24 µM) in the assay on Staphylococcus aureus [1] and 0.4 µg/mL (≈ 0.958 µM) in the assay with Streptococcus pneumoniae [2].

For `Cc1c(N2CCC(N)C(C)C2)c(F)cc2c(=O)c(C(=O)O)cn(C3CC3)c12.Cl` (centres undefined), in the assay on Staphylococcus aureus [4], the MIC was determined as 1.56 µg/mL.

On to `COc1c(N2CC(C)C(N(C)C)C(C)C2)c(F)cc2c(=O)c(C(=O)O)cn(C3CC3)c12` (centres undefined), for which the MIC with Staphylococcus aureus [1] came out at 0.1 µg/mL (≈ 0.232 µM); with Streptococcus pneumoniae [2], 0.2 µg/mL (≈ 0.463 µM); in the assay on Streptococcus pneumoniae [3], 0.2 µg/mL (≈ 0.463 µM).

Turning to `CCN(CC)C1CCN(c2c(F)cc3c(=O)c(C(=O)O)cn(C4CC4)c3c2OC)CC1`, the MIC was 0.2 µg/mL (≈ 0.463 µM) in the assay with Staphylococcus aureus [1] and 0.8 µg/mL (≈ 1.85 µM) in the assay on Streptococcus pneumoniae [2].

On to `CCn1cc(C(=O)O)c(=O)c2cc(F)c(N3CCC(N)C(C)(C)C3)c(OC)c21` (centres undefined), for which the MIC in the assay with Staphylococcus aureus [1] is 6.25 µg/mL (≈ 16 µM); in the assay with Streptococcus pneumoniae [2], 1.56 µg/mL (≈ 3.99 µM).

Regarding `COc1c(N2CCC(NC(C)=O)C(C)(C)C2)c(F)cc2c(=O)c(C(=O)O)cn(C3CC3)c12` (centres undefined), the minimum inhibitory concentration (MIC) came out at 0.4 µg/mL (≈ 0.898 µM) with Staphylococcus aureus [1] and 1.56 µg/mL (≈ 3.5 µM) with Streptococcus pneumoniae [2].

Turning to `Cc1c(F)c(N2CCC(N)C(C)(C)C2)c(F)c2c1c(=O)c(C(=O)O)cn2C1CC1` (centres undefined), the results for the MIC in the assay on Staphylococcus aureus [1] and with Streptococcus pneumoniae [2] were 3.12 µg/mL (≈ 7.7 µM) and 0.1 µg/mL (≈ 0.247 µM), respectively.

Consider `CC1(C)CN(c2nc3c(cc2F)c(=O)c(C(=O)O)cn3C2CC2)CCC1N` (centres undefined), for which the minimum inhibitory concentration (MIC) with Staphylococcus aureus [1] was over 12.5 µg/mL; in the assay on Streptococcus pneumoniae [2] it was 3.12 µg/mL (≈ 8.33 µM).

With `COc1c(N2CCC(NC3CC3)C(C)(C)C2)c(F)cc2c(=O)c(C(=O)O)cn(C3CC3)c12` (centres undefined), the minimum inhibitory concentration (MIC) in the assay on Staphylococcus aureus [1] stood at 0.2 µg/mL (≈ 0.451 µM); in the assay with Streptococcus pneumoniae [2], 0.8 µg/mL (≈ 1.8 µM); in the assay with Streptococcus pneumoniae [3], 0.8 µg/mL (≈ 1.8 µM).

In the case of `COc1c(N2CCC(N)C(C)(C)C2)c(F)c(N)c2c(=O)c(C(=O)O)cn(-c3ccc(F)cc3F)c12` (centres undefined), the values for the MIC with Staphylococcus aureus [1] and in the assay on Streptococcus pneumoniae [2] were 12.5 µg/mL (≈ 25.5 µM) and 3.12 µg/mL (≈ 6.36 µM), respectively.
